# Laboratory results published in the supplement of paper PMC9013687.
# ± gives the standard deviation of the averaged measurements.
# Legend:
# Danio rerio embryo [1] = tested on: Danio rerio embryo
# Procedure: (§1)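 Zebrafish embryos (UFZ-OBI strain) were exposed from 2 hpf for 48 h (2 dpf) or 96 h (4 dpf) at 28 °C; spontaneous tail coiling was scored at 25 hpf. Morphological features from automated image analysis (FishInspector), heart rate and locomotor response were fitted with drc models. Quantal endpoints were dichotomised at 2.5 SD from controls and fitted with a log-logistic model; heart rate, pigmentation and STC were normalised to the replicate control mean. Betamethasone was tested as betamethasone dipropionate, diflorasone as diflorasone diacetate.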
# Danio rerio embryo [2] = conditions: exposure time: 4 dpf
# Procedure: as §1
# Danio rerio embryo [3] = assay: EC20 Head trunk angle_Decrease; higher = less potent; conditions: exposure time: 2 dpf
# Procedure: as §1
# Danio rerio embryo [4] = assay: EC20 LMR dark; higher = less potent; conditions: exposure time: 4 dpf
# Procedure: as §1
# Danio rerio embryo [5] = assay: EC10 Any effect; higher = less potent
# Procedure: as §1
# Danio rerio embryo [6] = assay: EC20 Head size_Decrease; higher = less potent; conditions: exposure time: 2 dpf
# Procedure: as §1
# Danio rerio embryo [7] = assay: EC20 Any effect; higher = less potent
# Procedure: as §1
# Danio rerio embryo [8] = assay: EC50 Yolk sac size_Increase
# Procedure: as §1
# Danio rerio embryo [9] = assay: EC50 Eye size_Decrease; conditions: exposure time: 2 dpf
# Procedure: as §1
# Danio rerio embryo [10] = assay: spontaneous tail coiling frequency (coils/min/embryo); higher = more spontaneous movement; conditions: 25 hpf
# Procedure: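 Spontaneous tail coilings of zebrafish embryos exposed from 2 hpf were recorded at 24-25 hpf in 1-min videos and detected by a KNIME workflow from grey-value variance. Betamethasone was tested as the dipropionate, diflorasone as the diacetate.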
# Danio rerio embryo [11] = assay: EC10 Lack of SB; higher = less potent; conditions: exposure time: 4 dpf
# Procedure: as §1
# Danio rerio embryo [12] = assay: EC10 Head size_Decrease; higher = less potent; conditions: exposure time: 2 dpf
# Procedure: as §1
# Danio rerio embryo [13] = assay: EC10 Yolk sac size_Increase; higher = less potent
# Procedure: as §1
# Danio rerio embryo [14] = assay: EC10 LMR ligth decrease; higher = less potent; conditions: exposure time: 4 dpf
# Procedure: as §1
# Danio rerio embryo [15] = assay: EC20 STC decrease; higher = less potent; conditions: exposure time: 25 h
# Procedure: as §1
# Danio rerio embryo [16] = assay: EC10 Eye size_Decrease; higher = less potent; conditions: exposure time: 2 dpf
# Procedure: as §1
# Danio rerio embryo [17] = assay: EC50 Pericard size_Increase; conditions: exposure time: 2 dpf
# Procedure: as §1
# Danio rerio embryo [18] = assay: EC10 LMR dark; higher = less potent; conditions: exposure time: 4 dpf
# Procedure: as §1
# Danio rerio embryo [19] = assay: EC10 Bladder size_Decrease; higher = less potent; conditions: exposure time: 4 dpf
# Procedure: as §1
# Danio rerio embryo [20] = assay: EC10 Pericard size_Increase; higher = less potent; conditions: exposure time: 2 dpf
# Procedure: as §1
# Danio rerio embryo [21] = assay: EC10 Curvature_Increase; higher = less potent
# Procedure: as §1
# Danio rerio embryo [22] = assay: EC20 Eye size_Decrease; higher = less potent; conditions: exposure time: 2 dpf
# Procedure: as §1
# Danio rerio embryo [23] = assay: EC20 Lack of SB; higher = less potent; conditions: exposure time: 4 dpf
# Procedure: as §1
# Danio rerio embryo [24] = assay: EC20 Bladder size_Decrease; higher = less potent; conditions: exposure time: 4 dpf
# Procedure: as §1
# Danio rerio embryo [25] = assay: EC50 Head size_Decrease; conditions: exposure time: 2 dpf
# Procedure: as §1
# Danio rerio embryo [26] = assay: EC20 Pericard size_Increase; higher = less potent; conditions: exposure time: 2 dpf
# Procedure: as §1
# Danio rerio embryo [27] = conditions: exposure time: 4 dpf; remark: listed apart in the source
# Procedure: as §1
# Danio rerio embryo [28] = assay: EC10 Head trunk angle_Decrease; higher = less potent; conditions: exposure time: 2 dpf
# Procedure: as §1
# Danio rerio embryo [29] = assay: EC50 Bladder size_Decrease; conditions: exposure time: 4 dpf
# Procedure: as §1
# Danio rerio embryo [30] = assay: EC10 STC decrease; higher = less potent; conditions: exposure time: 25 h
# Procedure: as §1
# Danio rerio embryo [31] = assay: EC20 Yolk sac size_Increase; higher = less potent
# Procedure: as §1
# Danio rerio embryo [32] = assay: EC10 Eye-jaw distance_Decrease; higher = less potent; conditions: exposure time: 4 dpf
# Procedure: as §1
# Danio rerio embryo [33] = assay: EC50 Curvature_Increase
# Procedure: as §1
# Danio rerio embryo [34] = assay: EC20 LMR ligth decrease; higher = less potent; conditions: exposure time: 4 dpf
# Procedure: as §1
# Danio rerio embryo [35] = assay: EC20 Eye-jaw distance_Decrease; higher = less potent; conditions: exposure time: 4 dpf
# Procedure: as §1
# Danio rerio embryo [36] = assay: EC50 Eye-jaw distance_Decrease; conditions: exposure time: 4 dpf
# Procedure: as §1
# Danio rerio embryo [37] = assay: EC20 Body length_Decrease; higher = less potent
# Procedure: as §1
# Danio rerio embryo [38] = assay: EC50 Body length_Decrease
# Procedure: as §1
# Danio rerio embryo [39] = assay: EC50 Head trunk angle_Decrease; conditions: exposure time: 2 dpf
# Procedure: as §1
# Danio rerio embryo [40] = assay: EC20 Curvature_Increase; higher = less potent
# Procedure: as §1
# Danio rerio embryo [41] = assay: EC10 Body length_Decrease; higher = less potent
# Procedure: as §1
smiles,measurement,setting,value
CC1=C(/C=C/C(C)=C/C=C/C(C)=C/C(=O)O)C(C)(C)CCC1 [all-trans retinoic acid],EC50 Any effect,Danio rerio embryo [1]; exposure time: 2 dpf,9 nM
same,EC50 Any effect,Danio rerio embryo [1]; exposure time: 4 dpf,11 nM
same,EC50 LMR ligth decrease,Danio rerio embryo [1]; exposure time: 4 dpf,27.4 nM
same,EC50 STC decrease,Danio rerio embryo [1]; exposure time: 25 h,76 nM
same,EC50 LMR dark,Danio rerio embryo [2],36 nM
same,EC20 Head trunk angle Decrease,Danio rerio embryo [3],4 nM
same,EC20 LMR dark,Danio rerio embryo [4],22 nM
same,EC10 Any effect,Danio rerio embryo [5]; exposure time: 2 dpf,8 nM
same,EC10 Any effect,Danio rerio embryo [5]; exposure time: 4 dpf,6 nM
same,EC20 Head size Decrease,Danio rerio embryo [6],26 nM
same,EC20 Any effect,Danio rerio embryo [7]; exposure time: 2 dpf,8 nM
same,EC20 Any effect,Danio rerio embryo [7]; exposure time: 4 dpf,7 nM
same,EC50 Yolk sac size Increase,Danio rerio embryo [8]; exposure time: 2 dpf,45 nM
same,EC50 Yolk sac size Increase,Danio rerio embryo [8]; exposure time: 4 dpf,39 nM
same,EC50 Eye size Decrease,Danio rerio embryo [9],38 nM
same,spontaneous tail coiling frequency,Danio rerio embryo [10]; 1 µM,3.33
same,spontaneous tail coiling frequency,Danio rerio embryo [10]; 6.25 µM,2.34 ± 0.24
same,spontaneous tail coiling frequency,Danio rerio embryo [10]; 12.5 µM,2.17 ± 0.16
same,spontaneous tail coiling frequency,Danio rerio embryo [10]; 25 µM,2.1 ± 0.75
same,spontaneous tail coiling frequency,Danio rerio embryo [10]; 50 µM,1.74 ± 0.17
same,EC10 Lack of SB,Danio rerio embryo [11],12 nM
same,EC10 Head size Decrease,Danio rerio embryo [12],19 nM
same,EC10 Yolk sac size Increase,Danio rerio embryo [13]; exposure time: 2 dpf,13 nM
same,EC10 Yolk sac size Increase,Danio rerio embryo [13]; exposure time: 4 dpf,34 nM
same,EC10 LMR ligth decrease,Danio rerio embryo [14],1.7 nM
same,EC20 STC decrease,Danio rerio embryo [15],5.6 nM
same,EC10 Eye size Decrease,Danio rerio embryo [16],34 nM
same,EC50 Pericard size Increase,Danio rerio embryo [17],39 nM
same,EC10 LMR dark,Danio rerio embryo [18],16 nM
same,EC10 Bladder size Decrease,Danio rerio embryo [19],11 nM
same,EC10 Pericard size Increase,Danio rerio embryo [20],35 nM
same,EC10 Curvature Increase,Danio rerio embryo [21]; exposure time: 2 dpf,7 nM
same,EC10 Curvature Increase,Danio rerio embryo [21]; exposure time: 4 dpf,6 nM
same,EC20 Eye size Decrease,Danio rerio embryo [22],36 nM
same,EC20 Lack of SB,Danio rerio embryo [23],15 nM
same,EC20 Bladder size Decrease,Danio rerio embryo [24],12 nM
same,EC50 Head size Decrease,Danio rerio embryo [25],42 nM
same,EC20 Pericard size Increase,Danio rerio embryo [26],36 nM
same,EC50 Lack of SB,Danio rerio embryo [27],20 nM
same,EC10 Head trunk angle Decrease,Danio rerio embryo [28],2 nM
same,EC50 Bladder size Decrease,Danio rerio embryo [29],17 nM
same,EC10 STC decrease,Danio rerio embryo [30],1.22 nM
same,EC20 Yolk sac size Increase,Danio rerio embryo [31]; exposure time: 2 dpf,21 nM
same,EC20 Yolk sac size Increase,Danio rerio embryo [31]; exposure time: 4 dpf,36 nM
same,EC10 Eye-jaw distance Decrease,Danio rerio embryo [32],25 nM
same,EC50 Curvature Increase,Danio rerio embryo [33]; exposure time: 2 dpf,13 nM
same,EC50 Curvature Increase,Danio rerio embryo [33]; exposure time: 4 dpf,10 nM
same,EC20 LMR ligth decrease,Danio rerio embryo [34],4.75 nM
same,EC20 Eye-jaw distance Decrease,Danio rerio embryo [35],28 nM
same,EC50 Eye-jaw distance Decrease,Danio rerio embryo [36],33 nM
same,EC20 Body length Decrease,Danio rerio embryo [37]; exposure time: 2 dpf,33 nM
same,EC20 Body length Decrease,Danio rerio embryo [37]; exposure time: 4 dpf,30 nM
same,EC50 Body length Decrease,Danio rerio embryo [38]; exposure time: 2 dpf,36 nM
same,EC50 Body length Decrease,Danio rerio embryo [38]; exposure time: 4 dpf,48 nM
same,EC50 Head trunk angle Decrease,Danio rerio embryo [39],11 nM
same,EC20 Curvature Increase,Danio rerio embryo [40]; exposure time: 2 dpf,9 nM
same,EC20 Curvature Increase,Danio rerio embryo [40]; exposure time: 4 dpf,7 nM
same,EC10 Body length Decrease,Danio rerio embryo [41]; exposure time: 2 dpf,31 nM
same,EC10 Body length Decrease,Danio rerio embryo [41]; exposure time: 4 dpf,23 nM
